From ChEMBL document CHEMBL4765227, “Hit to lead optimization of a series of N-[4-(1,3-benzothiazol-2-yl)phenyl]acetamides as monoacylglycerol lipase inhibitors with potential anticancer activity” (Eur J Med Chem, 2016) come the findings set out here.

Common to all, as to format: functional
Details in all cases: read-out: GI

For one experiment, the system named is OVCAR-3. Put plainly: Growth inhibition of human OVCAR-3 cells at 10 uM incubated for 48 hrs by sulforhodamine B assay relative to control. On the technique in general: Sulforhodamine B stains cellular protein and so reports cell mass.
In another experiment the test system is Malme-3M. Briefly: Growth inhibition of human Malme-3M cells at 10 uM incubated for 48 hrs by sulforhodamine B assay relative to control.
Another experiment deals with K562. Put plainly: Growth inhibition of human K562 cells at 10 uM incubated for 48 hrs by sulforhodamine B assay relative to control.
The next experiment deals with NCI/ADR-RES. Briefly: Growth inhibition of human NCI/ADR-RES cells at 10 uM incubated for 48 hrs by sulforhodamine B assay relative to control.
The next experiment concerns HOP-62. Put plainly: Growth inhibition of human HOP-62 cells at 10 uM incubated for 48 hrs by sulforhodamine B assay relative to control.
For a further experiment, the system named is CAKI-1. Briefly: Growth inhibition of human CAKI-1 cells at 10 uM incubated for 48 hrs by sulforhodamine B assay relative to control.
Another experiment concerns SNB-75. Put plainly: Growth inhibition of human SNB-75 cells at 10 uM incubated for 48 hrs by sulforhodamine B assay relative to control.
A further experiment deals with IGROV-1. Put plainly: Growth inhibition of human IGROV-1 cells at 10 uM incubated for 48 hrs by sulforhodamine B assay relative to control.
A further experiment deals with SK-MEL-2. Briefly: Growth inhibition of human SK-MEL-2 cells at 10 uM incubated for 48 hrs by sulforhodamine B assay relative to control.
For the next experiment, the system named is MCF7. Briefly: Growth inhibition of human MCF7 cells at 10 uM incubated for 48 hrs by sulforhodamine B assay relative to control.
The next experiment has as its system 786-0. Put plainly: Growth inhibition of human 786-0 cells at 10 uM incubated for 48 hrs by sulforhodamine B assay relative to control.
The next experiment concerns SK-MEL-28. Put plainly: Growth inhibition of human SK-MEL-28 cells at 10 uM incubated for 48 hrs by sulforhodamine B assay relative to control.
Another experiment concerns BT-549. Briefly: Growth inhibition of human BT-549 cells at 10 uM incubated for 48 hrs by sulforhodamine B assay relative to control.
Another experiment concerns MOLT-4. Briefly: Growth inhibition of human MOLT-4 cells at 10 uM incubated for 48 hrs by sulforhodamine B assay relative to control.
The test system of a further experiment is A498. Briefly: Growth inhibition of human A498 cells at 10 uM incubated for 48 hrs by sulforhodamine B assay relative to control.
Another experiment relates to EKVX. Briefly: Growth inhibition of human EKVX cells at 10 uM incubated for 48 hrs by sulforhodamine B assay relative to control.

Turning to `O=C(CN1CCCCC1)Nc1ccc(-c2nc3ccccc3s2)cc1`, the inhibition of growth at 10 µM is -0.25% with OVCAR-3; -9.17% in the experiment on Malme-3M; 49.8% in the experiment on K562; 6.26% in the experiment on NCI/ADR-RES; 7.87% in the experiment with HOP-62; 9.3% in the experiment with CAKI-1. The inhibition of growth at 10 µM is 1.53% with SNB-75; -10.3% in the experiment with IGROV-1; -7.06% in the experiment with SK-MEL-2; 75.1% in the experiment on MCF7; 13.9% in the experiment on 786-0; -9.51% in the experiment with SK-MEL-28. For the same compound, the inhibition of growth at 10 µM with BT-549 stood at 1.67%; in the experiment with MOLT-4, 14.3%.

For the compound `O=C(CNC1CCCCC1)Nc1ccc(-c2nc3ccccc3s2)cc1`, the inhibition of growth at 10 µM with OVCAR-3 is 5.98%; in the experiment with Malme-3M, -5.44%; with K562, 50.5%; in the experiment with NCI/ADR-RES, 11%; in the experiment on HOP-62, 14.8%; in the experiment on CAKI-1, 14%. The inhibition of growth at 10 µM in the experiment with SNB-75 is 32.7%; with IGROV-1, -0.35%; in the experiment with SK-MEL-2, -4.63%; with MCF7, 72%; in the experiment with 786-0 it was 29.4%; in the experiment with SK-MEL-28 it was 4.77%. The inhibition of growth at 10 µM in the experiment with BT-549 worked out at 12.4%; in the experiment with MOLT-4, 45.9%.

Take `O=C(CNCc1ccccc1)Nc1ccc(-c2nc3ccccc3s2)cc1`: the inhibition of growth at 10 µM in the experiment with OVCAR-3 is 8.88%; with Malme-3M, -6.22%; in the experiment on K562, 11.6%; in the experiment with NCI/ADR-RES, -0.82%; with HOP-62 it was -6.53%; in the experiment with CAKI-1, 9.29%. Besides, the inhibition of growth at 10 µM is 18% in the experiment on SNB-75; -2.9% in the experiment with IGROV-1; -7.25% in the experiment with SK-MEL-2; 61.6% in the experiment with MCF7; 8.55% in the experiment with 786-0; 2.7% with SK-MEL-28. For the same compound, the figures for the inhibition of growth at 10 µM in the experiment with BT-549 and in the experiment with MOLT-4 were 1.91% and 12%, respectively.

For the compound `O=C(CN1CCOCC1)Nc1ccc(-c2nc3ccccc3s2)cc1`, the inhibition of growth at 10 µM is 3.74% in the experiment with OVCAR-3; -17% in the experiment with Malme-3M; 0.74% in the experiment with K562; -4.92% in the experiment on NCI/ADR-RES; -6.41% in the experiment on HOP-62; 0.31% in the experiment with CAKI-1. For the same compound, the inhibition of growth at 10 µM is 0.01% in the experiment with SNB-75; -5.69% in the experiment with IGROV-1; -14.6% in the experiment on SK-MEL-2; 51.2% in the experiment on MCF7; -1.3% with 786-0; -2.13% in the experiment with SK-MEL-28. The values for the inhibition of growth at 10 µM in the experiment with BT-549 and in the experiment on MOLT-4 were -3.57% and 0.57%, respectively.

Regarding `O=C(CNc1ccccc1)Nc1ccc(-c2nc3ccccc3s2)cc1`, the inhibition of growth at 10 µM is 5.15% in the experiment with OVCAR-3; 4.9% in the experiment on Malme-3M; 22.5% in the experiment with K562; 1.75% in the experiment on NCI/ADR-RES; -12% with HOP-62; 1.16% in the experiment with CAKI-1. Further, the inhibition of growth at 10 µM in the experiment with SNB-75 was 17.4%; in the experiment on IGROV-1, 16.1%; with SK-MEL-2, -4.93%; with MCF7, 53.2%; in the experiment on 786-0, 15.4%; with SK-MEL-28, 3.37%. In addition, the inhibition of growth at 10 µM amounted to 43.5% in the experiment on BT-549 and 84.5% in the experiment on MOLT-4.

Consider `Cc1cc(NCC(=O)Nc2ccc(-c3nc4ccccc4s3)cc2)no1`, for which the inhibition of growth at 10 µM in the experiment with OVCAR-3 is 0.7%; with A498, 10.3%; in the experiment with Malme-3M, 10.5%; with K562, 17%; in the experiment on NCI/ADR-RES, -2.68%; in the experiment with HOP-62, -10.9%. In addition, the inhibition of growth at 10 µM was -3.5% in the experiment with CAKI-1; -11.5% with SNB-75; 11.5% with IGROV-1; 64.1% in the experiment with MCF7; -1.59% in the experiment on 786-0; -7.95% with EKVX. In addition, the inhibition of growth at 10 µM in the experiment with SK-MEL-28 is -10.5%; with BT-549 it was 5.29%; in the experiment with MOLT-4, 53.2%.

Consider `COc1ccc(NCC(=O)Nc2ccc(-c3nc4ccccc4s3)cc2)cc1`, for which the inhibition of growth at 10 µM is 3.44% with OVCAR-3; -26% in the experiment with Malme-3M; 11.6% in the experiment on K562; -1.88% with NCI/ADR-RES; 14.6% in the experiment with HOP-62; -2.81% in the experiment on CAKI-1. Also, the inhibition of growth at 10 µM with SNB-75 was 25.4%; with IGROV-1 it was 7.74%; in the experiment on SK-MEL-2, -15.7%; with MCF7 it was 35%; in the experiment with 786-0, 14.8%; in the experiment with SK-MEL-28 it was -11.1%. Moreover, the inhibition of growth at 10 µM stood at 15.2% with BT-549 and 33.7% with MOLT-4.

In the case of `NS(=O)(=O)c1ccc(NCC(=O)Nc2ccc(-c3nc4ccccc4s3)cc2)cc1`, the inhibition of growth at 10 µM was 65.7% with OVCAR-3; 46.4% with Malme-3M; 91.6% in the experiment on K562; 5.97% with NCI/ADR-RES; -17.8% with HOP-62; 7.14% in the experiment on CAKI-1. In addition, the inhibition of growth at 10 µM in the experiment with SNB-75 was 30.5%; with IGROV-1 it was 41%; with SK-MEL-2, 12.2%; in the experiment on MCF7, 72.4%; with 786-0 it was 87.9%; in the experiment on SK-MEL-28, 0.58%. Besides, the inhibition of growth at 10 µM amounted to 85.5% in the experiment on BT-549 and 93.8% in the experiment with MOLT-4.

With `O=C(Cn1ccnc1)Nc1ccc(-c2nc3ccccc3s2)cc1`, the inhibition of growth at 10 µM was found to be 37.8% in the experiment with OVCAR-3; 42.5% in the experiment with A498; 60.4% in the experiment with K562; 11.8% in the experiment with NCI/ADR-RES; 16.2% in the experiment on HOP-62; 33.8% with CAKI-1. The inhibition of growth at 10 µM with SNB-75 is 11.2%; in the experiment with IGROV-1, 31.1%; in the experiment with MCF7, 38.7%; in the experiment on 786-0, 22%; in the experiment on EKVX, 38.6%; in the experiment on SK-MEL-28 it was -4.87%. Besides, the inhibition of growth at 10 µM in the experiment on BT-549 was 34.9%; in the experiment with MOLT-4, 31.9%.

For `Cc1ccc(NCC(=O)Nc2ccc(-c3nc4ccccc4s3)cc2)cc1`, the inhibition of growth at 10 µM with OVCAR-3 was 0.68%; with Malme-3M, -21.5%; in the experiment on K562, -0.15%; in the experiment with NCI/ADR-RES, 2.16%; in the experiment on HOP-62 it was 3.62%; in the experiment on CAKI-1, 0.82%. The inhibition of growth at 10 µM in the experiment with SNB-75 is -0.38%; with IGROV-1 it was 7.63%; in the experiment on SK-MEL-2, -6.66%; in the experiment with MCF7 it was 40.9%; in the experiment on 786-0, 10.2%; in the experiment with SK-MEL-28, -17.2%. The figures for the inhibition of growth at 10 µM in the experiment on BT-549 and in the experiment on MOLT-4 were 35.4% and 41.9%, respectively.

As for `O=C(CNc1nc2ccccc2s1)Nc1ccc(-c2nc3ccccc3s2)cc1`, the inhibition of growth at 10 µM is 2.04% in the experiment with OVCAR-3; 6.15% with A498; 1.87% with Malme-3M; 4.87% in the experiment with K562; -1.94% in the experiment with NCI/ADR-RES; -4.25% in the experiment with HOP-62. The inhibition of growth at 10 µM with CAKI-1 is -0.18%; with SNB-75, 1.04%; in the experiment on IGROV-1 it was 33.4%; in the experiment with MCF7, 75.2%; in the experiment on 786-0, -1.86%; in the experiment on EKVX, -9.9%. Moreover, the inhibition of growth at 10 µM in the experiment on SK-MEL-28 is -13.3%; in the experiment on BT-549, -6.3%; in the experiment with MOLT-4, 15.8%.
